Source: PMC5131364, “Pharmacologic modulation of RORγt translates to efficacy in preclinical and translational models of psoriasis and inflammatory arthritis” (Scientific Reports, 2016)

Key:
[1] = tested on: human iTreg cells co-cultured with responder CD4+ T cells; test: Human inducible regulatory T cells suppressive function; type: cell-based; conditions: iTreg generated in presence of 1 μM, CFSE
Method: 37 °C and 5% CO2 for 6 days. Cells were used for flow cytometry analysis of FOXP3+CD4+ T cells and RNA isolation to determine FOXP3 expression. The probe sets were purchased form Life technologies, FOXP3 […]
Human inducible regulatory T cells generation and suppressive function
To generate inducible regulatory T cells, naïve CD4 T cells was purified from PBMCs using naive CD4+ T cell isolation kit II, human (Miltenyi) and stimulated with anti‐CD3/anti‐CD28 antibodies plus IL‐2 and TGF‐β (10 ng/ml each, R&D system) in the presence or absence of 1µM JNJ‐54271074 . After 6‐7 days T cells were washed and Foxp3 expression was evaluated by FACS. […] After 4 days CFSE dilution was evaluated by FACS as an indication of responder T cell’s proliferation.
Supplementary Figure 1. […] Accumulated IL‐ 17A or IFNγ  was measured by ELISA.
Supplementary Figure 2. […] Total splenocytes were cultured with IL‐23 and IL‐2 in the presence of titrated JNJ‐54271074 for 4 days, and supernatants were measured for IL‐17A and IL‐22 by ELISA. IC50 was determined using Prism Graphpad.
Supplementary Figure 3. […] Cells were analyzed by flow cytometry for 17A+ and IL‐ 17A+/22+ population (A). […] Cells from DMSO or 1 µM JNJ‐54271074 treated wells were analyzed by flow cytometry for IFNγ+ and IL‐17A+ population (B) and IFNγ level in supernatants was […]

[2] = tested on: CD4+ T cells from draining lymph nodes restimulated with OVA; test: In vivo mouse Th17 differentiation (OVA/CFA) and in vitro restimulation; type: cell-based; conditions: 1 μM, OVA restimulation
Text: The following antibodies (anti-mouse or anti-human) were purchased from BD Biosciences (San Diego, CA) or eBioscience (San Diego, CA): anti-CD3-FITC (mouse 17A2 and human SK7), anti-CD4-allophycocyanin (APC), anti-CD4-PerCp, anti-CD4-FITC, anti-CD4-PE (mouse GK1.5 and human SK3), anti-CD44-PerCp (mouse IM7), anti-γδ TCR-FITC, anti-γδ TCR-PE (mouse GL3 and human B1), anti-CD62L-FITC (mouse MEL-14 and human SK11), anti-CD45RO-APC (human UCHL1), anti-CCR6-PE (human 11A9), anti-CD45-PerCp (mouse 30-F11). Human or mouse anti-IFNγ (mouse XMG1.2 and human 4S.B3), anti-TNFα (mouse MP6-XT22 and human MAB11), anti-IL-17A (mouse eBio17B7 and human eBio64DEC17), anti-IL-22 (mouse 1H8PWSR and human 22URTI), and anti-Foxp3 (mouse FJK-16s and human 36A/E7), all PE or APC conjugated, were purchased from eBioscience (San Diego, CA). Human and mouse APC conjugated CD1d tetramers pre-loaded with alpha-GalCer and negative controls were obtained from ProImmune. […] Cells were stained with fluorescence-labeled antibodies for surface marker, then fixed/permeabilized (eBioscience) and stained with antibodies for intracellular cytokines. […] The data were acquired on a FACS Calibur (BD Bioscience) and analyzed using FlowJo software (Tree Star, San Carlos, CA). […]

[3] = tested on: collagen-induced arthritis in DBA/1Lacj mice; test: Mouse collagen-induced arthritis model; type: in vivo; conditions: 60 mg/kg BID oral
Method: Mice (female DBA/1Lacj mice, Jackson Laboratories; 8–10 weeks) were housed with 12 hours light-dark cycle with food and water provided ad libitum. Following acclimation, mice were immunized with an emulsion containing equal amounts of Chick Type II Collagen (Chondrex, Redmond, WA) and Complete-Freund’s adjuvant (CFA, Chondrex), 100 μg each per mouse, on day 0 at the base of the tail and administered a second immunization boost on day 21. On day 21, animals were examined for clinical arthritis scores and randomized into treatment groups. […] The clinical arthritis scores were evaluated from days 21 to 34. Animals were euthanized under CO2 on day 35. Both hind-paws from each animal were collected and fixed in 10% neutral buffered formalin for histopathology. Both front paws were digested after removing the skin in 0.125% (v/v) Dispase II (Roche, Indianapolis, IN), 0.2% collagenase II (Roche, Indianapolis, IN), and 0.2% collagenase IV (Sigma-Aldrich, St. Louis, MO) in HBSS for 75 min at 37 °C and passed through a cell strainer. Cells were then stimulated and analyzed by flow cytometry for cytokine-producing cells.
Tissues were fixed in 10% formalin, sectioned, and stained with H&E for histology at Seventh Wave Laboratories, LLC, (Chesterfield, MO).

With COc1nc2ccc([C@@](O)(c3ccc(C)nc3C)c3cnnn3C)cc2c(Cl)c1Cc1ccc(C(F)(F)F)cc1 [JNJ-54271074] the “Treg suppressive activity on T cell proliferation” value [1] was “not affected”, the “IL-17A+ and IL-17A+ IL-22+ CD4+ T cells” value [2] was “significantly suppressed” and the “IL-22 single positive cells” value [2] was “no effect”. For the same compound, the “reduction of AUC for disease score” value [3] was 79%, the “decrease of IL-17A-producing CD3+ cell population in paws” value ([3]; day 35) was ~ 70% and the “inflammation, cartilage damage and bone destruction compared with vehicle” value ([3]; hind paws histology) was “significantly reduced”. For the same compound, the “reduction of total histopathology score” value ([3]; hind paws, day 35) was 80%.
